Experiment [1] relates to Mus musculus. In words: Anti-inflammatory activity in LPS-induced C57BL/6 mouse model of acute lung injury assessed as reduction in hyperemia of pulmonary alveolar septa at 10 to 50 mg/kg, ip pretreated for 1 hr followed LPS challenge measured after 24 hrs by hematoxylin and eosin staining based microscopy. The format is functional, organism-based.
The target in experiment [2] is T1, Polyunsaturated fatty acid lipoxygenase ALOX15 (Homo sapiens) (UniProt P16050).
T1 sequence (whole entry): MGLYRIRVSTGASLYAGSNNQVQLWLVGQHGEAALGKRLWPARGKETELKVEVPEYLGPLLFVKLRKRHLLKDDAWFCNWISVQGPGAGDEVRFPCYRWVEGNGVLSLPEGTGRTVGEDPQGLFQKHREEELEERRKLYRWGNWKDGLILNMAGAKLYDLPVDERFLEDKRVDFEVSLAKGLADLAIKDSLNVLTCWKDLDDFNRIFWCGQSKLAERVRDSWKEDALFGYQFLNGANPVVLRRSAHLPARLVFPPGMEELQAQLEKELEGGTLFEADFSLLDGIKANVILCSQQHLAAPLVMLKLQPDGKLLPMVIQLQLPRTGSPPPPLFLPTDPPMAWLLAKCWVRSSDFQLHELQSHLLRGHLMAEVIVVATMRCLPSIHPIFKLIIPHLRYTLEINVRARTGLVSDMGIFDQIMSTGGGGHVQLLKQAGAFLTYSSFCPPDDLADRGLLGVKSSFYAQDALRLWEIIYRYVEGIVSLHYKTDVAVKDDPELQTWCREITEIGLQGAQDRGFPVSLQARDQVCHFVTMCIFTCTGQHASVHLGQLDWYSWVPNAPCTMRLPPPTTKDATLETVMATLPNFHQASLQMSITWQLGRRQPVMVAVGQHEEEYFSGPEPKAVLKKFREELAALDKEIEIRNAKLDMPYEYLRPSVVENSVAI
Briefly: Inhibition of recombinant human N-terminal His-tagged 15-LOX-1 expressed in Escherichia coli using arachidonic acid as substrate measured every 2 min intervals for 20 mins by fluorescence analysis.

Experiment [3] deals with Mus musculus. In words: Anti-inflammatory activity in BLM-induced C57BL/6 mouse model of acute lung injury assessed as reduction in IL-6 mRNA level in BALF compound administered intraperitoneally once daily for 7 days post BLM challenge measured on day 7 by qRT-PCR method. The class given is functional.
For experiment [4], the target named is T2, Polyunsaturated fatty acid lipoxygenase ALOX12 (Homo sapiens) (UniProt P18054).
T2 sequence (whole entry): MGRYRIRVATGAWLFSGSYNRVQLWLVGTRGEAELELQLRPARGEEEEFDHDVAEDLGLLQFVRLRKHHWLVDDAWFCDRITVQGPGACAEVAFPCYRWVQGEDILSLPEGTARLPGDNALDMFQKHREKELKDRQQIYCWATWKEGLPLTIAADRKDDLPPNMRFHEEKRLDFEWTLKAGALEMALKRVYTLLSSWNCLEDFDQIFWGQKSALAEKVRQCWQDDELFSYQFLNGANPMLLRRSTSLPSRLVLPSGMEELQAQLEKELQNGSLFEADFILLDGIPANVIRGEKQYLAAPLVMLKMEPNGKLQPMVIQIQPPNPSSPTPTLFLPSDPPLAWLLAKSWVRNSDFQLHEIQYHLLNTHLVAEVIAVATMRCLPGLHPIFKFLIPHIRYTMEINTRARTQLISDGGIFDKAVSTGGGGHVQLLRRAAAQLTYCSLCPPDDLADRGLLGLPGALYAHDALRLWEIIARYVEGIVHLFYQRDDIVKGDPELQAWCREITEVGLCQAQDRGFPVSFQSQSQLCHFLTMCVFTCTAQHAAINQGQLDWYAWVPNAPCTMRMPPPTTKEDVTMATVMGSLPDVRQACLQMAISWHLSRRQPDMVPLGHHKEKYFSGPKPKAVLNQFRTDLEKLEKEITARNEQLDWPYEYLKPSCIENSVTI
Briefly: Inhibition of recombinant human N-terminal His-tagged 12-LOX expressed in Escherichia coli assessed as conversion of arachidonic acid to HETEs measured for 300 secs by UV-visible spectrophotometric analysis.

Experiment [5] concerns Mus musculus. Briefly: Anti-inflammatory activity in BLM-induced C57BL/6 mouse model of acute lung neutrophilic inflammation assessed as reduction in number of lymphocytes in BALF at 10 and 25 mg/kg, ip qd for 7 days post BLM challenge measured on day 7. The class given is functional, organism-based.
Experiment [6] has as its target T3, Leukotriene A-4 hydrolase (Mus musculus, UniProt P24527).
T3 sequence (P24527 whole entry): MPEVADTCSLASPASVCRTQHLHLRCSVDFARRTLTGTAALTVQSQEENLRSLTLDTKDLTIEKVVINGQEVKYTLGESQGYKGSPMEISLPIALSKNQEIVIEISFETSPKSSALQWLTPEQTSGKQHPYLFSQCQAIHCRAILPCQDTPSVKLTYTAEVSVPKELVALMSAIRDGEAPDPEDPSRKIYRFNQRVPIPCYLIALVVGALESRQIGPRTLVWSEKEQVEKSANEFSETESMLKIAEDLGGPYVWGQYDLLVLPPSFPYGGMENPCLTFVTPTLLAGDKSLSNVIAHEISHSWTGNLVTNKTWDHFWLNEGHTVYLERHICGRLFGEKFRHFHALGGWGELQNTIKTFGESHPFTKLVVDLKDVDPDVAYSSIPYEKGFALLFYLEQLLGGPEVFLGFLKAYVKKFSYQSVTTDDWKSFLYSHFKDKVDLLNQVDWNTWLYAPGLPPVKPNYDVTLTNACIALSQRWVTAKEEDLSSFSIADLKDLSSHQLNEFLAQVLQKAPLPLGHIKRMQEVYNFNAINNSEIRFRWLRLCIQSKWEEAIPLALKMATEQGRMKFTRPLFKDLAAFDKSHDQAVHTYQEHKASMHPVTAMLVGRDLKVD
In words: Inhibition of LTA4H in C57BL/6 mouse assessed as reduction in LTB4 production pre-incubated for 30 mins before 5-(methylamino)-2-({(2R,3R,6S,8S,9R,11R)-3,9,11-trimethyl-8-[(1S)-1-methyl-2-oxo-2-(1H-pyrrol-2-yl)ethyl]-1,7-dioxaspiro[5.5]undec-2-yl}methyl)-1,3-benzoxazole-4-carboxylic acid stimulation for 30 mins by ELISA. On the technique in general: An ELISA detects its analyte on a solid surface through an enzyme-linked reagent.

Experiment [7] has as its system Mus musculus. Briefly: Anti-inflammatory activity in BLM-induced C57BL/6 mouse model of acute lung neutrophilic inflammation assessed as reduction in number of neutrophils in BALF at 10 and 25 mg/kg, ip qd for 7 days post BLM challenge measured on day 7. The format is functional, organism-based.
For experiment [8], the species on record is Mus musculus. The settings on record: C57BL/6, at 25 mg/kg.
Description: Inhibition of LTB4 biosynthesis in LPS-induced C57BL/6 mouse model of acute lung injury BLAF at 25 mg/kg, ip by ELISA
Experiment [9] relates to Mus musculus. Briefly: Anti-inflammatory activity in BLM-induced C57BL/6 mouse model of acute lung neutrophilic inflammation assessed as reduction in macrophage number in BALF at 10 and 25 mg/kg, ip qd for 7 days post BLM challenge measured on day 7. The class given is functional, organism-based.
Experiment [10] deals with Mus musculus. In words: Anti-inflammatory activity in BLM-induced C57BL/6 mouse model of acute lung injury assessed as reduction in IL-6 level in BALF at 10 and 25 mg/kg, ip qd for 7 days post BLM challenge measured on day 7 by ELISA. The class given is functional, organism-based.

The source made the active and inactive calls. The calls are words filed in the database; no cut-off is given here.

Take `O=C(CCCCCCC(=O)Nc1ccccc1)NO` [VORINOSTAT]: the result in experiment [1], in [5] and in [7] was Active. In addition, the INH in [2] and in experiment [4] was > 50 µM throughout. For the same compound, the Activity entry in experiment [3] is “Dose-dependent effect”. For the same compound, the IC50 (usually the concentration needed to halve the response being measured) in [6] was 6.15 µM.
Take `CN(C)c1ccc(C(=O)NCCCCCCC(=O)NO)cc1`: the INH in experiment [2] and in experiment [4] was > 50 µM in each case. The inhibition result in experiment [8] is “Active”. The Activity entry in experiment [3] is “Dose-dependent effect”. The outcome in [5], in [9], in [10] and in experiment [7] was Active. For the same compound, the IC50 in [6] is 0.79 µM.

(Values after ChEMBL document CHEMBL4007425, “Drug Repurposing of Histone Deacetylase Inhibitors That Alleviate Neutrophilic Inflammation in Acute Lung Injury and Idiopathic Pulmonary Fibrosis via Inhibiting Leukotriene A4 Hydrolase and Blocking LTB4 Biosynthesis” (J Med Chem, 2017).)
